The text below walks through data of article PMC9573699, “Deactivatable Bisubstrate Inhibitors of Protein Kinases” (Molecules, 2022).

The target in data set [1] is T1, PKAcα (Homo sapiens, UniProt P17612).
Text: (§1) In the present work, photoluminescence-based competitive equilibrium binding assay was used to establish the KD and KD^app values of the novel compounds as determined before and after fragmentation, respectively. […] Two assay formats were used, which were designed for the determination of KD values of high-affinity bivalent inhibitors and the mixtures of their low-affinity fragments, respectively.
The first assay was based on the measurement of the time-gated photoluminescence signal intensity (TGLI) and it utilized ARC-Lum(Fluo) probes ARC-1063 or ARC-1182, which both emit long life-time photoluminescence signal when associated with a target PK [38]. ARC-1063 and ARC-1182 differ by the fluorescent label (Figure S7) and the choice between these probes was only based on the availability of the particular probe. […]
The displacement data were fitted to the previously described [40, 42] exact model of competitive binding (further explained in Appendix A) to determine KD and KD^app values, which were used as concentration- and probe-independent quantities to evaluate the deactivation efficiencies of the novel compounds.
The fluorescence intensity (FI), fluorescence anisotropy (FA), and time gated photoluminescence intensity (TGLI) measurements were performed with a PHERAstar (BMG Labtech) microplate reader. […] The TGLI was recorded for 200 µs after 60 µs delay from the flash-excitation. […]
Data set [2] has as its target PKAcα. As to conditions: cited from earlier work.
Data set [3] concerns the target T1, PKAcα. Description: FA-based competitive binding/displacement assay (probe ARC-583). To be noted: for influence of TCEP on the displacement curve: FA assay, TCEP 1 mM.
Text: as §1
A typical assay setup based on the measurement of FA utilizes concentrations of the fluorescence probes slightly below the concentration of the target protein but higher than the KD^* to achieve maximal Δr. The assay in the present work was conducted at 2 nM ARC-583 and 3 nM PKAcα. […] Thus, the KD values for low-affinity compounds can be reliably established with this FA-based assay format.
The fluorescence intensity (FI), fluorescence anisotropy (FA), and time gated photoluminescence intensity (TGLI) measurements were performed with a PHERAstar (BMG Labtech) microplate reader. The FI and FA measurements of the photoluminescent probe ARC-583 were performed with FP optical module [EX 540(50) nm, EM 590(50) nm]. The detector was adjusted with solution of the free probe ARC-583 (in the absence of PKAcα). […] The TGLI measurements of photoluminescent probes ARC-1182 and ARC-1063 were performed with HTRF optical module (EX 330(50) nm, EM 675(50) nm). The TGLI was recorded for 200 µs after 60 µs delay from the flash-excitation.
Upon arrival, the stock solution of PKAcα was divided into batches and stored at −80 °C. After removal from a freezer at −80 °C, the batches of PKAcα were stored at 0 °C in an ice box until consumed, to avoid repetitive freeze-thaw cycles.
The microplates were incubated for 30 min at 30 °C before measurements. The measurements were repeated after 60 min to verify that the reactions had reached the equilibrium. […] Formation of the complex was observed by the change of FA and the concentration of PKAcα was calculated as previously described [40, 42]. […] First, the solutions were incubated for 30 min at 30 °C, thereafter the FA or TGLI signals were measured. Then, the stock solution of TCEP (1 µL) was added to all wells to the final concentration of 1 mM. The microplates were then incubated for an additional 30 min at 30 °C and the FA or TGLI signals were measured in the presence of TCEP. All experiments were carried out in at least two replicates (n ≥ 2) and the reported errors are the standard errors of the mean.
The anisotropy change (Δr) with respect to the anisotropy of free photoluminescent probe ARC-583 and the TGLI of the photoluminescent probes ARC-1182 and ARC-1063 were plotted as functions of log[I]T, where [I]T corresponds to the total concentration of the ‘dark’ ligand/inhibitor that competes with the probe for the binding to the catalytic subunit of PK ([I]T = [I] + [PK:I], where [I] and [PK:I] correspond to the equilibrium concentrations of unbound I and PK:I complex, respectively).
Data set [4] concerns PKAcα. Kind of data set: Estimated dynamic range of enzyme activity change upon deactivation (Equations 2, 3). As to conditions: estimated from change of KD app / IC50 upon deactivation. The text has this: In general, deactivation of an inhibitor can be observed by a shift of a dose-response curve in a biochemical assay, which is caused by the increase of IC50 value from IC50^ON (the IC50 of the active inhibitor) to IC50^OFF (the IC50 of the deactivated inhibitor). The fraction of the active enzyme before and after applying the trigger depends on the initial concentration of the deactivatable inhibitor. If the sigmoidal dose–response model describes the concentration dependencies of the inhibition before and after applying the stimulus, the biggest change of the fraction of the active enzyme in the solution is observed at the concentration of the inhibitor Iopt whose logarithm is the average of the corresponding logIC50 values (Equation (2)):(2) logIopt=1/2logIC50ON+logIC50OFF
The ratio of fractions of active enzyme after (a^maxopt) and before (a^minopt) deactivation of the inhibitor (i.e., the on/off ratio of the activity of the enzyme) is determined by the square root of the ratio of the corresponding IC50 values (Equation (3)):(3) aoptmax/aoptmin=IC50OFF/IC50ON^1/2
Thus, the larger the difference between IC50^ON and IC50^OFF values is (ΔIC50), the higher the dynamic range of activity change (Δaopt = a^maxopt − a^minopt) of the enzyme is. […]

Data set [5] is described as follows: HPLC-MS analysis of the fragmentation of ARC-2121 and ARC-2194. Format: physicochemical. As to conditions: TCEP 1 mM, pH 7.5, 30 °C. As to the method: At fixed time points (1, 10, 30, 60, and 120 min), 10 µL of the solution (corresponding to 1 nmol of the substrate) was injected into the RP-HPLC column.
ARC-2121 (200 µM) was dissolved in H2O:MeCN (10:1). ARC-2121 (200 µM, 20 µL) was irradiated for a fixed time (15, 30, 60, 90, and 120 s) inside a microtiter plate at room temperature (rt) using the custom-made 365 nm LED array (Figure S2). Then, 9 µL (1.7 nmol) of the solution was injected into the RP-HPLC column.

Data set [6] relates to PKAcα. On the set-up: method as in PMID 17125267. To be noted: cited from earlier work.

Read-outs that look alike come from different tables or passages of the source. Non-standard residues stand in square brackets, D forms with d. Residues, ends and D or L forms follow the SMILES beside them. *: point of attachment. X2 = O=C(CCCCCCCC(=O)*)N1CCN(c2ncnc3[nH]ccc23)CC1

In general, Kd refers to the equilibrium constant for the complex coming apart. As to `N=C(N)NCCC[C@@H](NC(=O)CCCCCCCC(=O)N1CCN(c2ncnc3[nH]ccc23)CC1)C(=O)N[C@H](CCCNC(=N)N)C(=O)N[C@H](CCCNC(=N)N)C(=O)N[C@H](CCCNC(=N)N)C(=O)N[C@H](CCCNC(=N)N)C(=O)N[C@H](CCCNC(=N)N)C(=O)N[C@H](CCCCN)C(N)=O` [ARC-1411] (X2-[dR][dR][dR][dR][dR][dR][dK]-NH2), the values for the Kd in data set [1] and in data set [2] (previously measured affinity) were 0.003 ± 0.001 nM and 0.003 nM, respectively. Further, the “influence of TCEP on the displacement curve” value (from here on “influence of TCEP”) in data set [3] was “not influenced”. For `N=C(N)NCCC[C@@H](NC(=O)[C@@H](CCCNC(=N)N)NC(=O)[C@@H](CCCNC(=N)N)NC(=O)[C@@H](CCCNC(=N)N)NC(=O)[C@@H](CCCNC(=N)N)NC(=O)[C@@H](CCCNC(=N)N)NC(=O)OCCSSCCOC(=O)N1CCN(c2ncnc3[nH]ccc23)CC1)C(N)=O` [ARC-2194], the “Δaopt (dynamic range of activity change of the enzyme)” value in data set [4] is reported as 98%. Further, the “time to quantitative conversion of parent compound to 1a” value in data set [5] (100 µM) is given as “less than 1 min”. For `O=C(OCCS)N1CCN(c2ncnc3[nH]ccc23)CC1` [Compound 1a], the “fraction converted to 2a” value in data set [5] (after 2 h) is on record as “more than 50%”. For the molecule `c1nc(N2CCNCC2)c2cc[nH]c2n1` [Compound 2a, 4-(piperazin-1-yl)-7H-pyrrolo [2,3-d]pyrimidine], in data set [3], binding was put at a Kd of 550 ± 150 nM and the “influence of TCEP” value is given as “not influenced”.

Molecule `NC(=O)CCCCCCCC(=O)N1CCN(c2ncnc3[nH]ccc23)CC1` [Compound 11a, 7DP-Pip-Nda-amide] showed a Kd in data set [3] of 460 ± 210 nM. For the molecule `O=S(=O)(NCCNC/C=C/c1ccc(Br)cc1)c1cccc2cnccc12` [Compound H-89], in data set [2] (H-89:PKAcα complex), the Kd was 9 nM. Moreover, the “influence of TCEP” value in data set [3] was “not influenced”. In the case of hexa-D-arginine, the inhibitory potency result in data set [6] was “millimolar”.
